Assay results: the supplement of paper PMC10307832

Columns and labels:
Assay in all cases: relative viability (nuclei count vs DMSO), 5 days (fraction); higher = more cells survive
Vismodegib = compound: CS(=O)(=O)c1ccc(C(=O)Nc2ccc(Cl)c(-c3ccccn3)c2)c(Cl)c1 [Vismodegib]
Outline: (§1)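 Viability is treated-well nuclei as a fraction of vehicle-well nuclei, reported as the median across plates. Before counting, lung cancer cell lines were kept overnight at 37 °C in 1536-well plates, pinned with five √10-spaced library-drug doses on vehicle-anchored plates, and left 5 days without medium change, then fixed, permeabilised and Hoechst-stained in one step, imaged at 4× and counted by MetaXpress. A plate passed only if control CV was below 25% and at least one doubling occurred.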

VE-821 = compound: CS(=O)(=O)c1ccc(-c2cnc(N)c(C(=O)Nc3ccccc3)n2)cc1 [VE-821]
Outline: as §1

Ruxolitinib = compound: N#CC[C@H](C1CCCC1)n1cc(-c2ncnc3[nH]ccc23)cn1 [Ruxolitinib]
Outline: as §1

VE-821 + Foretinib = compound: CS(=O)(=O)c1ccc(-c2cnc(N)c(C(=O)Nc3ccccc3)n2)cc1 [VE-821] + COc1cc2c(Oc3ccc(NC(=O)C4(C(=O)Nc5ccc(F)cc5)CC4)cc3F)ccnc2cc1OCCCN1CCOCC1 [Foretinib] (partner 0.25 µM)
Outline: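 Five library-drug doses in √10 steps were combined with a fixed anchor-drug dose, or a single drug was given alone, by pin tool to lung cancer cell lines in 1536-well plates the day after seeding. Nuclei were stained and counted after 5 days. Relative viability is the nuclei count in treated wells over that in vehicle wells, taken as the median of duplicate plates.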

| Cell Line | relative viability (Vismodegib; 0.08 µM) | relative viability (Vismodegib; 0.253 µM) | relative viability (Vismodegib; 0.8 µM) | relative viability (Vismodegib; 2.53 µM) | relative viability (Vismodegib; 8 µM) | relative viability (VE-821; 0.08 µM) | relative viability (VE-821; 0.253 µM) | relative viability (VE-821; 0.8 µM) | relative viability (VE-821; 2.53 µM) | relative viability (VE-821; 8 µM) | relative viability (Ruxolitinib; 0.08 µM) | relative viability (Ruxolitinib; 0.253 µM) | relative viability (Ruxolitinib; 0.8 µM) | relative viability (Ruxolitinib; 2.53 µM) | relative viability (Ruxolitinib; 8 µM) | relative viability (VE-821 + Foretinib; first compound 0.08 µM) | relative viability (VE-821 + Foretinib; first compound 0.253 µM) | relative viability (VE-821 + Foretinib; first compound 0.8 µM) | relative viability (VE-821 + Foretinib; first compound 2.53 µM) | relative viability (VE-821 + Foretinib; first compound 8 µM) |
| --- | --- | --- | --- | --- | --- | --- | --- | --- | --- | --- | --- | --- | --- | --- | --- | --- | --- | --- | --- | --- |
| LC-2-ad | 1 | 0.952 | 0.939 | 0.929 | 0.907 | 1.07 | 0.978 | 1.05 | 1.12 | 0.995 | 0.779 | 0.971 | 1.01 | 0.842 | 0.665 | 1.04 | 1.05 | 1.03 | 1.17 | 1.03 |
| NCI-H647 | 0.913 | 0.863 | 0.978 | 0.964 | 1.14 | 1.11 | 0.9 | 0.798 | 0.987 | 0.506 | 0.81 | 0.962 | 1.04 | 0.897 | 0.836 | 1.51 | 1.29 | 1.01 | 1.14 | 0.801 |
| LCLC-97TM1 | 1 | 0.984 | 0.904 | 0.802 | 0.979 | 1 | 0.964 | 0.969 | 1.13 | 0.703 | 0.895 | 0.852 | 0.826 | 0.892 | 0.949 | 1.12 | 1.05 | 0.878 | 0.98 | 0.885 |
| LK-2 | 1 | 0.842 | 0.861 | 1.02 | 0.899 | 1.26 | 0.911 | 0.993 | 1.02 | 0.881 | 0.928 | 0.949 | 1.13 | 1.02 | 1.09 | 1.5 | 1.46 | 1.05 | 1.37 | 1.14 |
| BEN | 1 | 1.02 | 0.891 | 0.926 | 1.02 | 0.977 | 1.01 | 0.849 | 1.03 | 0.885 | 0.992 | 0.938 | 1.14 | 0.965 | 1.07 | 0.685 | 0.574 | 0.623 | 0.581 | 0.76 |
| NCI-H650 | 0.953 | 0.895 | 0.88 | 0.915 | 0.815 | 1.04 | 0.909 | 1.05 | 1.1 | 0.895 |  | 0.937 | 1.01 | 0.854 | 0.696 | 1.04 | 1.05 | 1.08 | 1.04 | 1.07 |
| EKVX | 0.797 | 0.945 | 0.944 | 0.968 | 0.941 | 1.12 | 0.997 | 0.937 | 1.08 | 0.855 | 0.753 | 0.836 | 1 | 0.898 | 0.742 | 0.801 | 0.673 | 0.574 | 0.874 | 0.582 |
| NCI-H1395 | 0.834 | 0.878 | 0.853 | 0.829 | 1 | 0.963 | 0.89 | 0.792 | 0.888 | 0.665 | 0.816 | 0.767 | 1.02 | 0.913 | 0.771 | 1.05 | 1.01 | 0.826 | 0.98 | 0.828 |
| NCI-H2009 | 0.982 | 0.977 | 0.976 | 0.964 | 0.992 | 1.03 | 0.961 | 1 | 1.06 | 0.863 | 1.03 | 1.01 | 1.04 | 0.842 | 0.657 | 1.34 | 1.26 | 1.1 | 1.28 | 1.23 |
| NCI-H23 | 1.05 | 0.931 | 0.886 | 0.926 | 0.773 | 1.03 | 0.888 | 0.983 | 0.818 | 0.319 | 1.04 | 1.01 | 0.995 | 0.84 | 0.772 | 1.19 | 1.13 | 0.889 | 0.688 | 0.39 |
| LU99A | 0.989 | 0.899 | 0.964 | 0.819 | 0.922 | 0.987 | 1.01 | 0.962 | 0.998 | 0.464 | 1.06 | 0.997 | 1.08 | 0.816 | 0.777 | 0.903 | 0.763 | 0.802 | 0.851 | 0.462 |
| NCI-H1915 | 1.02 | 1.01 | 0.957 | 0.983 | 0.907 | 1.07 | 0.949 | 1.02 | 1.05 | 0.755 | 0.983 | 1.03 | 1.07 | 0.901 | 0.85 | 1.15 | 1.08 | 1.03 | 1.09 | 0.912 |
| EMC-BAC-2 | 0.99 | 0.953 | 0.903 | 1.01 | 0.934 | 1.18 | 0.896 | 1.02 | 0.965 | 0.858 | 0.974 | 0.946 | 1.06 | 0.978 | 0.678 | 1.05 | 0.944 | 0.856 | 1.05 | 0.949 |
| 201T | 0.983 | 0.942 | 0.977 | 0.964 | 0.968 | 1.03 | 0.94 | 0.937 | 1.01 | 0.703 | 1.05 | 1.1 | 1.18 | 1.19 | 1.1 | 1.09 | 1.17 | 0.784 | 0.968 | 0.6 |
| NCI-H2228 | 1.07 | 1.13 | 1.04 | 0.889 | 0.89 | 0.938 | 1.03 | 0.806 | 1.27 | 0.728 | 0.764 | 0.964 | 1.3 | 0.809 | 0.737 | 0.945 | 0.849 | 0.946 | 0.749 | 0.567 |
| NCI-H1944 | 1.05 | 1.02 | 0.966 | 0.904 | 1.04 | 1.18 | 0.933 | 0.873 | 1.08 | 0.425 | 1.02 | 0.927 | 0.968 | 0.875 | 0.863 | 0.917 | 0.84 | 0.694 | 0.862 | 0.487 |
